Columns and labels:
[1] = Safety and tolerability of B. infantis EVC001 supplementation in healthy term nursing infants; format: in vivo, human; conditions: healthy term breastfed infants
Procedure: This trial was designed to show the effect of probiotic supplementation with Bifidobacterium longum subsp. Infantis (B. infantis EVC001) in healthy, term, nursing infants compared to an unsupplemented group. A dry composition of lactose and activated Bifidobacterium longum subsp. infantis was prepared starting with the cultivation of a purified isolate (Strain EVC001 ATCC Accession No. PTA-125180, Evolve Biosystems Inc., Davis, Calif., isolated from a human infant fecal sample) in the presence of BMO according to International Patent Application No. PCT/US2015/057226. […] This concentrated powder was then diluted by blending with infant formula grade lactose to an activity level of about 30 Billion CFU/g. This composition then was loaded into individual sachets at about 0.625 g/sachet and provided to breast-fed infants starting on or about day 7 of life and then provided on a daily basis for the subsequent 21 days.
This was a 60-day study starting with infants' date of birth as Day 1. […]
Infant fecal samples were collected throughout the 60-day trial. […] Safety and tolerability were determined from maternal reports of infants' feeding, stooling frequency, and consistency (using a modified Amsterdam infant stool scale—watery, soft, formed, hard; Bekkali et al. 2009), as well as GI symptoms and health outcomes. […]

[2] = test system: diabetes mellitus; assay: Prevention of type 1 diabetes in NOD mice; format: in vivo, mouse; conditions: compared to control mice
From the text: Germ-free non-obese diabetic (NOD) mouse pups are weaned 3 weeks after birth and put on a polysaccharide-free diet that contains Vitamin A. As soon as the mouse pups are weaned, they are gavaged with a dysbiotic (no Bifidobacterium sp. and high proteobacteria) human infant microbiome at Day 1 of the experiment. The mice are divided into 4 groups: control, control plus LNnT, B. infantis, and B. infantis plus LNnT. Mice are given the composition for 21 days. All Groups receive B. infantis or a placebo every 3 days by gavage; the LNnT or placebo is added to the drinking water. Additional mice are divided into 2 groups These groups are gavaged with a healthy human infant microbiome (Bifidobacterium species) at day 21 of the experiment. The mice are then either fed placebo or LNnT in their drinking and receive vitamin A in their chow. Mice are monitored for diabetes with weekly tail vein blood glucose measurements and euthanized following two consecutive daily readings of >[…]. […] Plasma is evaluated for cytokines and innate immune factors. Fecal samples are taken every day and evaluated using qPCR and/or 16s and/or shotgun sequencing for microbial colonization. […]

[3] = test system: zonulin; assay: Fecal zonulin ELISA; format: in vivo, human; conditions: treatment group
From the text: Fecal zonulin concentrations: Zonulin has been described as the main physiological modulator of intercellular tight junction, and increased levels are indicative of increased gut permeability.

[4] = Immune development in C-section infants; format: in vivo, human; conditions: baseline to three months
From the text: Approximately 25 mother-infant dyads are recruited to provide a cord blood sample and two infant blood samples, one on day 0-4 and another at 3 months old (between 84 and 104). Markers of immune function will be analysed and compared to the development of the gut microbiome.
The study design is described in FIG. 16. The change in levels of immune cells and markers from baseline (Day 0-Day 4) to three months (Day 84-Day 104) will be measured. The correlation between gut microbiota composition and abundance and levels of immune cells and markers may also be measured. The differences between B. infantis and placebo supplementation on levels of immune cells and markers in breast-fed infants.
The differences between B. infantis and placebo supplementation on vaccine response (antibody titers). Blood samples are collected at baseline and month-three postpartum for evaluation of peripheral blood mononuclear cell characterization (including regulatory T cells) and vaccine response.

**Q.** Which “Adverse events versus unsupplemented group” value ([1]; 60-day study) does the source give for “Bifidobacterium longum subsp. infantis EVC001 [B. infantis EVC001]” here?
**A.** not different between groups

**Q.** And the Tolerability ([1]; at least 1.8×10^10 cfu once daily for 21 days from Day 7)?
**A.** well-tolerated

**Q.** What about the “Incidence of the development of diabetes mellitus” value [2] of the same substance?
**A.** reduces

**Q.** What about the Fecal zonulin concentration [3] of the same substance?
**A.** significantly reduced

**Q.** What about the Inflammation [4] of the same substance?
**A.** reduced

**Q.** And the “Th17 and IL-17 level” value [4]?
**A.** decreased

**Q.** What about the Tregs [4] of the same substance?
**A.** increased
